We go through one compound from PMC5575657, “Characterization and Expression Profiling of Camellia sinensis Cinnamate 4-hydroxylase Genes in Phenylpropanoid Pathways” (Genes, 2017).

Holding throughout (test): HPLC of p-coumaric acid formed in yeast culture
What all share (type): cell-based
Common to all, as to conditions: 0.2 mM substrate fed to yeast culture, 28 °C, 1 h; product p-coumaric acid; empty vector control

The target in experiment [1] is T1, CsC4Hb (Camellia sinensis, UniProt A0A286QXW8).
T1 construct: gene C4Hb; cloning reverse primer keeps the stop codon
T1 sequence (A0A286QXW8 1-505): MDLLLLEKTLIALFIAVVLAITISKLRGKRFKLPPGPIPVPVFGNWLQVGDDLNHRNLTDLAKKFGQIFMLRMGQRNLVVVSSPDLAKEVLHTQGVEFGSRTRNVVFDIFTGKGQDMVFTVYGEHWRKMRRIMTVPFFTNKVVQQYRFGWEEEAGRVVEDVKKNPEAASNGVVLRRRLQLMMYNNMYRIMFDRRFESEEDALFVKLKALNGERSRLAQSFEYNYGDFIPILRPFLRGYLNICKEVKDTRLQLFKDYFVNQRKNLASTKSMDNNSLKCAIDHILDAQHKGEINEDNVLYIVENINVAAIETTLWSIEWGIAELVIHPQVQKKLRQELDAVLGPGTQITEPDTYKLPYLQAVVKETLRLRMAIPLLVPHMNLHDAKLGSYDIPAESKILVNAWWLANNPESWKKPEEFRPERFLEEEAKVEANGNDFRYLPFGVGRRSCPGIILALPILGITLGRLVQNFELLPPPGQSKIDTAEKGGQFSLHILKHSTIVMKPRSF

The target in experiment [2] is T2, CsC4Hc (Camellia sinensis, UniProt A0A286QXW5).
T2 construct: gene C4Hc; cloning reverse primer keeps the stop codon
T2 sequence (A0A286QXW5 1-544): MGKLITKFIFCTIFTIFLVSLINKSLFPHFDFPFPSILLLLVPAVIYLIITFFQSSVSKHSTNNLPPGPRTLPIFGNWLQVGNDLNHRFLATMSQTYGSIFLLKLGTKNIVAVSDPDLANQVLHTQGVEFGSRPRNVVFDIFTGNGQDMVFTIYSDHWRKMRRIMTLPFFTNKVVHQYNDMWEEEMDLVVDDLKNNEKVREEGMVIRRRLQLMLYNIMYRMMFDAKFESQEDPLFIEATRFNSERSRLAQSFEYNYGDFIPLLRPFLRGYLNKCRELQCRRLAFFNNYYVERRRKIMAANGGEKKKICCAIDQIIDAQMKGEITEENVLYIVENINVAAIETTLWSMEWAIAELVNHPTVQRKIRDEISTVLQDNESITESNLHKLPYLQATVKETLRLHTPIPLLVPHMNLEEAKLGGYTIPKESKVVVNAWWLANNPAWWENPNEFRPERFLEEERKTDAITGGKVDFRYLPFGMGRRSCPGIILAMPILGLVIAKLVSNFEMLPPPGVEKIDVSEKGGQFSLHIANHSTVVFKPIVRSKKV

Experiment [3] concerns the target T3, CsC4Ha (Camellia sinensis, UniProt A0A286QXW9).
T3 construct: gene C4Ha; cloning reverse primer keeps the stop codon
T3 sequence (A0A286QXW9 1-505): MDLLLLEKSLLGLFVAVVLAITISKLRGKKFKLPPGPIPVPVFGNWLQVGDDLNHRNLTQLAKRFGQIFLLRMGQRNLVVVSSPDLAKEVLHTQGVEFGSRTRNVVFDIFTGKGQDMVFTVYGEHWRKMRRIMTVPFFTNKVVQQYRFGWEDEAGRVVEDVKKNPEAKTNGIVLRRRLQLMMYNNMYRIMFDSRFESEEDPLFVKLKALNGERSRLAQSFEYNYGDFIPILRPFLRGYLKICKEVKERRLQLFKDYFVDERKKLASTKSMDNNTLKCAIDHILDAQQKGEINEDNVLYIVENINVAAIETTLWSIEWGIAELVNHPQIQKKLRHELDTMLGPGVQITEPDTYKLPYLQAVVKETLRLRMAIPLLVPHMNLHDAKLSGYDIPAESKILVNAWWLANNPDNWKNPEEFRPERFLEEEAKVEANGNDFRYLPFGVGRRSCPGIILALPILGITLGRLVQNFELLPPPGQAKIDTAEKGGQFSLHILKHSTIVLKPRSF

Turning to `O=C(O)/C=C/c1ccccc1` [trans-cinnamic acid], the “HPLC of p-coumaric acid formed in yeast culture” value in experiment [1], in experiment [2] and in experiment [3] was “three recombinant CsC4Hs are able to convert t-cinnamate to yield p-coumarate when expressed in yeast” each time.
